From patent publication US20190374534A1, “LIQUID PHARMACEUTICAL COMPOSITIONS COMPRISING PERGOLIDE” (Boehringer Ingelheim Vetmedica GmbH, priority 2018, published 2019)
Structures can show the parent of a compound that is named as a salt.

Test: Particle-size distribution (PSD) analysis, Malvern Mastersizer 3000
Assay type: physicochemical
Settings: certificate of analysis, FIG. 1; after spiral jet-mill micronization
Description: PARTICLE-SIZE DISTRIBUTION (PSD) ANALYTICAL METHOD: Equipment Malvern Mastersizer 3000 equipped with Hydro MV dispersion unit Dispersant Preparation—1. Fill the dispersion unit with hexane—2. Check that the channel 1 of background signal is less than 80 and no anomalous spikes are present—3. Check the background signal: it has to be stable and complying with the following limits: Channel 1<100, Channel 20<60. Sample Preparation—Randomize the sample by manually tumbling and rolling for 30 seconds, weigh approximately 15 mg of powder in a 100 mL Erlenmeyer flask, add 2 mL of Span 85 (Sorbitane trioleate; 5% w/w water solution). A homogeneous mixture, using the tip of a small stainless steel spatula, has to be obtained. Using a Pasteur pipette add 1 mL of water and homogenize the suspension. Repeat this operation until a volume of 8-10 mL is reached. Sonicate the sample for 5 seconds in an ultrasonic bath (25 kHz). Procedure—1. Once a stable background signal is obtained, proceed with the SOP—2. Add the sample until the obscuration target is reached. Avoid droplets to fall directly into the liquid when adding the sample suspension putting the pipette tip under water—3. Initiate the measurement—4. The particle size distribution values (D10, D50 and D90) are taken directly from the Malvern screen. All three values determined for a sample are average and rounded to obtain the final values.

median particle size: 13.3 μm
particle size distribution D90 value: 39.4 μm
SMILES: CCCN1C[C@H](CSC)C[C@@H]2c3cccc4[nH]cc(c34)C[C@H]21 [micronized pergolide mesylate, (8β)-8-[(methylthio)methyl]-6-propylergoline]
